From patent publication US20210395327A1, “Growth Hormone-Releasing Hormone Antagonists and Uses Thereof” (United States Government As Represented By The Department …, priority 2019, published 2021) come the findings set out here.

SMILES strings stand for the structures. pIC50: −log10 of the molar value. Entries after “also recorded” stand apart in the source; their conditions may differ. Like-named read-outs stand apart in the source and are kept apart here. Non-standard residues stand in square brackets, D forms with d. Residues, ends and D or L forms follow the SMILES beside them. *: point of attachment. Phenylacetyl(2,3,4,5,6-F5) = O=C(Cc1c(F)c(F)c(F)c(F)c1F)*; Phe(F5) = N[C@@H](Cc1c(F)c(F)c(F)c(F)c1F)C(=O)O; Phe(4-Cl) = N[C@@H](Cc1ccc(Cl)cc1)C(=O)O; hArg = N=C(N)NCCCC[C@H](N)C(=O)O; 12Ado = NCCCCCCCCCCCC(=O)O; Nle = CCCC[C@H](N)C(=O)O; Orn = NCCC[C@H](N)C(=O)O; Abu = CC[C@H](N)C(=O)O; PhAc = O=C(Cc1ccccc1)*; Aoc = NCCCCCCCC(=O)O

For assay [1], the system named is KATOIII stomach cancer cells. Put plainly: In vitro cell viability, KATOIII. Format: cell-based, human. As to conditions: antagonist 5 μM for 72 h, cell proliferation assay; MIA602 = 1. The procedure:
(§1) The inhibitory effects of the various synthesized GHRH antagonists were tested in cell proliferation assays in various human cancer cell lines including stomach cancer (KATOIII, N87), colon cancer (HT-29), urothelial cancer (J82, RT4), pancreatic cancer (PANC-1, CFPAC-1), prostatic cancer (PC3), breast cancer (MX-1, HCC1806), ovarian cancer (SK-OV-3, OVCAR-3) and lung cancer (HCC827, H460).
(§2) Cell culture. Human cancer cell lines including pancreatic (PANC-1 and CFPAC-1), lung (HCC827 and H460), stomach (NCI-N87 and KATOIII), urothelial (J82, RT4), prostatic (PC3), breast (MX-1 and HCC 1806), colorectal (HT-29), and ovarian (SK-OV-3 and OVCAR-3) were obtained from the American Type Culture Collection (ATCC) and cultured at 37° C. in a humidified 95% air/5% CO2 atmosphere in the medium recommended by ATCC.
(§3) In vitro cell viability. Cell viability was analyzed as follows: cancer cells including pancreatic (PANC-1 and CFPAC-1), lung (HCC827 and H460), stomach (NCI-N87 and KATOIII), urothelial (J82, RT4), prostatic (PC3) and breast (MX-1 and HCC 1806), colorectal (HT-29) and ovarian (SK-OV-3 and OVCAR-3) were grown on 96 well plates to ˜60% confluence, the cells were starved for 24 h in culture medium containing 0.5% FBS. Cells were then treated with GHRH antagonists MIA602 AVR compounds at concentrations of 1, 2.5 or 5 μM, or vehicle (0.1% DMSO) in quintuplicates for 72 hours. The medium was replaced every 48 hours. Cell viability was measured using CellTiter 96 aqueous one solution kit (Promega). Inhibitory effects of tested AVR compounds in comparison to that of MIA602 are presented as inhibitory potency.
(§4) Inhibitory effects of selected AVR compounds in comparison to that of MIA602 are presented as inhibitory potency (e.g., percentage of inhibition). […] The cell lines tested including lung cancer HCC827 (FIG. 2A), pancreatic cancer CFPAC-1 (FIG. 2B), stomach cancer N87 (FIG. 2C), colon cancer HT-29 (FIG. 2D), breast cancers MX-1 and HCC1806 (FIGS. 2 E, F). Based on the results of cell proliferation assay after cancer cells were treated with antagonist at concentration of 5 μM for 72H, the relative inhibitory potency of AVR antagonists in comparison to MIA-602 is summarized in Table 3 A and B. Over 60 AVR compounds were tested in 12 cancer cell lines.

Assay [2] addresses T1, membrane GHRH-receptors on human anterior pituitary cells (Homo sapiens, UniProt Q02643).
T1 construct: Human pituitary was purchased from the National Hormone and Peptide Program; tissue National Hormone and Peptide Program; host or cells: human pituitary (membrane fractions)
T1 sequence (Q02643 23-423): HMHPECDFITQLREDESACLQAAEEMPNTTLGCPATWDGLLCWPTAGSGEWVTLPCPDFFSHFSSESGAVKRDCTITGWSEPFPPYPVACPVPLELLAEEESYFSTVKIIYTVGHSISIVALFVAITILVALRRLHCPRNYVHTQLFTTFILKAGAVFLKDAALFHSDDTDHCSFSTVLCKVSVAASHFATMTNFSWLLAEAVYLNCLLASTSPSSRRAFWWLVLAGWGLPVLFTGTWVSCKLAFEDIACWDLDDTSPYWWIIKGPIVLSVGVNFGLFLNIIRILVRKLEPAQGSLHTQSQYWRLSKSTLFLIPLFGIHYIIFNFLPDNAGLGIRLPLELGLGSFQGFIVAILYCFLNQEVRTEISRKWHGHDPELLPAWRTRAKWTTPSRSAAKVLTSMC
Put plainly: Receptor binding, displacement of 125I-[His1,Nle27]-hGH-RH(1-32)NH2 on human pituitary membranes. The procedure: Receptor binding affinities in vitro. Preparation of human pituitary membrane fractions and receptor binding of analogs of GH-RH were performed (Halmos G, Rekasi Z, Szoke B, Schally A V. (1993) Receptor 3:87-97). Human pituitary was purchased from the National Hormone and Peptide Program. […] Relative affinities compared to hGH-RH(1-29)NH2 were calculated as the ratio of IC50 (dose causing 50% inhibition of specific binding to receptors) of the tested peptides to the IC50 of hGH-RH(1-29)NH2. The values were calculated from technical duplicate tubes.
Nineteen new AVR analogs of GHRH were tested in the receptor binding assay. Table 6 presents the IC50 values of GHRH antagonists to membrane GHRH-receptors binding on human anterior pituitary cells.
Background: Displacement assays read how much labelled ligand stays bound in the presence of the test substance.

Assay [3] deals with CFPAC-1 pancreatic cancer cells. Kind of assay: In vitro cell viability, CFPAC-1. As to conditions: antagonist 5 μM for 72 h, cell proliferation assay; MIA602 = 1. Type of assay: cell-based, human. As for the experimental part: as §1, §2, §3, §4
(§5) Based on the results of cell proliferation assay after cancer cells were treated with antagonist at concentration of 5 µM for 72H, * at concentration of 2 µM for 72 H.

Another assay deals with HCC827 lung cancer cells. Kind of assay: In vitro cell viability, HCC827. Type of assay: cell-based, human. As to conditions: antagonist 5 μM for 72 h, cell proliferation assay; MIA602 = 1. The procedure: as §1, §2, §3, §4, §5

With `CCCC[C@H](NC(=O)[C@@H](NC(=O)[C@H](CC(=O)O)NC(=O)[C@H](CCC(N)=O)NC(=O)[C@H](CC(C)C)NC(=O)[C@H](CC(C)C)NC(=O)[C@H](CCCCN)NC(=O)[C@H](CCCNC(=N)N)NC(=O)[C@H](C)NC(=O)[C@H](CO)NC(=O)[C@H](CC(C)C)NC(=O)[C@H](CCC(N)=O)NC(=O)[C@H](CC)NC(=O)[C@H](CC(C)C)NC(=O)[C@@H](NC(=O)[C@H](CCCCN)NC(=O)[C@H](CCCNC(=N)N)NC(=O)[C@H](Cc1ccc(OC)cc1)NC(=O)[C@H](CCCCNC(=N)N)NC(=O)[C@H](CC(N)=O)NC(=O)[C@@H](NC(=O)[C@H](Cc1ccc(Cl)cc1)NC(=O)[C@@H](NC(=O)[C@H](C)NC(=O)[C@H](CC(=O)O)NC(=O)[C@@H](CCCNC(=N)N)NC(=O)[C@H](Cc1ccc(O)cc1)NC(=O)CCCCCCCCCCCNC(=O)Cc1ccccc1)[C@@H](C)CC)[C@@H](C)O)C(C)C)[C@@H](C)CC)C(=O)N[C@H](CCCNC(=N)N)C(=O)N[C@@H](CCCCNC(=N)N)C(=O)NCCCCCCCC(=O)NC` [AVR-321, PhAC-Ada-Tyr-DArg-Asp-Ala-Ile-Cpa-Thr-Asn-Har-Tyr(Me)-Arg-Lys-Val-Leu-Abu-Gln-Leu-Ser-Ala-Arg-Lys-Leu-Leu-Gln-Asp-Ile-Nle-DArg-Har-Aoc-NHCH3] ({PhAc-12Ado}-Y[dR]DAI[Phe(4-Cl)]TN[hArg]Y(Me)RKVL[Abu]QLSARKLLQDI[Nle][dR][hArg][Aoc]-NHMe), the “relative inhibitory potency in comparison to MIA-602, Stomach KATOIII” value in assay [1] stood at 1.414. Further, in assay [2], the pIC50 – broadly, −log10 of the IC50, conventionally taken in molar units – is 9.64.
In the case of `CCCC[C@H](NC(=O)[C@@H](NC(=O)[C@H](CC(=O)O)NC(=O)[C@H](CCC(N)=O)NC(=O)[C@H](CC(C)C)NC(=O)[C@H](CC(C)C)NC(=O)[C@H](CCCN)NC(=O)[C@H](Cc1c[nH]cn1)NC(=O)[C@H](C)NC(=O)[C@H](CO)NC(=O)[C@H](CC(C)C)NC(=O)[C@H](CCC(N)=O)NC(=O)[C@H](CC)NC(=O)[C@H](CC(C)C)NC(=O)[C@@H](NC(=O)[C@H](CCCN)NC(=O)[C@H](Cc1c[nH]cn1)NC(=O)[C@H](Cc1c(F)c(F)c(F)c(F)c1F)NC(=O)[C@H](CCCCNC(=N)N)NC(=O)[C@H](C)NC(=O)[C@@H](NC(=O)[C@H](Cc1ccc(Cl)cc1)NC(=O)[C@@H](NC(=O)[C@H](C)NC(=O)[C@H](CC(=O)O)NC(=O)[C@@H](CCCNC(=N)N)NC(=O)[C@H](Cc1ccc(O)cc1)NC(=O)CCCCCCCCCCCNC(=O)Cc1c(F)c(F)c(F)c(F)c1F)[C@@H](C)CC)[C@@H](C)O)C(C)C)[C@@H](C)CC)C(=O)N[C@H](CCCNC(=N)N)C(=O)N[C@@H](CCCCNC(=N)N)C(=O)NC` [AVR-542, 5FPhAC-Ada-Tyr-DArg-Asp-Ala-Ile-Cpa-Thr-Ala-Har-5FPhe-His-Orn-Val-Leu-Abu-Gln-Leu-Ser-Ala-His-Orn-Leu-Leu-Gln-Asp-Ile-Nle-DArg-Har-NHCH3] ({Phenylacetyl(2,3,4,5,6-F5)-12Ado}-Y[dR]DAI[Phe(4-Cl)]TA[hArg][Phe(F5)]H[Orn]VL[Abu]QLSAH[Orn]LLQDI[Nle][dR][hArg]-NHMe), in assay [3], the “relative inhibitory potency in comparison to MIA-602, Pancreatic CFPAC-1” value is reported as 1.312. Further, the “relative inhibitory potency in comparison to MIA-602, Lung IICC827” value in the assay with HCC827 lung cancer cells was determined as 2.649.
With `CCCC[C@H](NC(=O)[C@@H](NC(=O)[C@H](CC(=O)O)NC(=O)[C@H](CCC(N)=O)NC(=O)[C@H](CC(C)C)NC(=O)[C@H](CC(C)C)NC(=O)[C@H](CCCN)NC(=O)[C@H](Cc1c[nH]cn1)NC(=O)[C@H](C)NC(=O)[C@H](CO)NC(=O)[C@H](CC(C)C)NC(=O)[C@H](CCC(N)=O)NC(=O)[C@H](CC)NC(=O)[C@H](CC(C)C)NC(=O)[C@@H](NC(=O)[C@H](CCCN)NC(=O)[C@H](Cc1c[nH]cn1)NC(=O)[C@H](Cc1c(F)c(F)c(F)c(F)c1F)NC(=O)[C@H](CCCCNC(=N)N)NC(=O)[C@H](C)NC(=O)[C@@H](NC(=O)[C@H](Cc1ccc(Cl)cc1)NC(=O)[C@@H](NC(=O)[C@H](C)NC(=O)[C@H](CC(=O)O)NC(=O)[C@@H](CCCNC(=N)N)NC(=O)[C@H](Cc1ccc(O)cc1)NC(=O)CCCCCCCCCCCNC(=O)Cc1c(F)c(F)c(F)c(F)c1F)[C@@H](C)CC)[C@@H](C)O)C(C)C)[C@@H](C)CC)C(=O)N[C@H](CCCNC(=N)N)C(=O)N[C@@H](CCCCNC(=N)N)C(=O)NCCCCCCCCCCCC(N)=O` [AVR-552, 5FPhAC-Ada-Tyr-DArg-Asp-Ala-Ile-Cpa-Thr-Ala-Har-5FPhe-His-Orn-Val-Leu-Abu-Gln-Leu-Ser-Ala-His-Orn-Leu-Leu-Gln-Asp-Ile-Nle-DArg-Har-Ada-NH2] ({Phenylacetyl(2,3,4,5,6-F5)-12Ado}-Y[dR]DAI[Phe(4-Cl)]TA[hArg][Phe(F5)]H[Orn]VL[Abu]QLSAH[Orn]LLQDI[Nle][dR][hArg][12Ado]-NH2), in assay [3], the “relative inhibitory potency in comparison to MIA-602, Pancreatic CFPAC-1” value is listed as 1.57. In addition, the “binding affinity to membrane receptors of human pituitary cells (in words)” value in assay [2] (competitive binding, human pituitary membrane fractions) is “higher binding affinity in comparison to MIA-602; also recorded: highest binding affinities”. Further, in assay [2] (membrane receptors on human anterior pituitary cells, mean of two to three determinations, read-out: IC50), the pIC50 is 9.77. Further, in the assay on HCC827 lung cancer cells, the “relative inhibitory potency in comparison to MIA-602, Lung IICC827” value stood at 4.376.
For `CCCC[C@H](NC(=O)[C@@H](NC(=O)[C@H](CC(=O)O)NC(=O)[C@H](CCC(N)=O)NC(=O)[C@H](CC(C)C)NC(=O)[C@H](CC(C)C)NC(=O)[C@H](CCCN)NC(=O)[C@H](Cc1c[nH]cn1)NC(=O)[C@H](C)NC(=O)[C@H](CO)NC(=O)[C@H](CC(C)C)NC(=O)[C@H](CCC(N)=O)NC(=O)[C@H](CC)NC(=O)[C@H](CC(C)C)NC(=O)[C@@H](NC(=O)[C@H](CCCN)NC(=O)[C@H](Cc1c[nH]cn1)NC(=O)[C@H](Cc1c(F)c(F)c(F)c(F)c1F)NC(=O)[C@H](CCCCNC(=N)N)NC(=O)[C@H](C)NC(=O)[C@@H](NC(=O)[C@H](Cc1ccc(Cl)cc1)NC(=O)[C@@H](NC(=O)[C@H](C)NC(=O)[C@H](CC(=O)O)NC(=O)[C@@H](CCCNC(=N)N)NC(=O)[C@H](Cc1ccc(O)cc1)NC(=O)CCCCCCCCCCCNC(=O)Cc1ccccc1)[C@@H](C)CC)[C@@H](C)O)C(C)C)[C@@H](C)CC)C(=O)N[C@H](CCCNC(=N)N)C(=O)N[C@@H](CCCCNC(=N)N)C(N)=O` [MIA-690, reference compound] ({PhAc-12Ado}-Y[dR]DAI[Phe(4-Cl)]TA[hArg][Phe(F5)]H[Orn]VL[Abu]QLSAH[Orn]LLQDI[Nle][dR][hArg]-NH2), in assay [2], the pIC50 was 9.28.
